For one test, the target named is T1, Ribonuclease pancreatic (Bos taurus, UniProt P61823).
T1 sequence (P61823 whole entry): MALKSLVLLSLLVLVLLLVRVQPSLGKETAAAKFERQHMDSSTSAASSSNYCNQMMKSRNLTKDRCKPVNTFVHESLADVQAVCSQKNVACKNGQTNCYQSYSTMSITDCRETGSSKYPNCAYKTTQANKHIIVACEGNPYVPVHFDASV
The test is described as follows: Competitive inhibition of bovine pancreatic RNase A ribonucleolytic activity of by Dixon plot analysis.

Test [1] deals with T2, Ribonuclease pancreatic (Bos taurus) (UniProt P61823).
T2 sequence (whole entry): T1 sequence (P61823 whole entry)
The test is described as follows: Inhibition of bovine pancreatic RNase A ribonucleolytic activity of RNase A at 2.5 mM after 2 hrs by precipitation assay.

Test [2] has as its target T2, Ribonuclease pancreatic (Bos taurus). The test is described as follows: Inhibition of bovine pancreatic RNase A assessed as degradation of tRNA at 1.9 mM after 6 hrs using ethidium bromide staining by agarose gel-based assay.

Calls of active or inactive are those of the source. The rule behind the calls is not given here.

In the case of `Cc1cn([C@H]2C[C@H](NC(=O)C(N)CC(=O)O)[C@@H](CO)O2)c(=O)[nH]c1=O` (some centres undefined), at Ribonuclease pancreatic, the inhibition constant (Ki) came out at 37 µM. For the same molecule, the inhibition in test [1] came out at 47.6%. In addition, in test [2], the inhibition result is “Active”.
Taken in the same sequence, the figures for `Nc1ncnc2c1ncn2[C@@H]1O[C@H](C(=O)O)[C@@H](O)[C@H]1O` [5'-CARBOXY ADENOSINE] were 67 µM, 32.2% and “Active”.
Taken in the same sequence, the figures for `Cc1cn([C@H]2C[C@H](O)[C@@H](C(=O)O)O2)c(=O)[nH]c1=O` [5'-CARBOXY THYMIDINE] were 193 µM, 23.5% and “Active”.

Usually Ki stands for a dissociation constant, usually derived from enzyme kinetics or from competition with a known ligand. Higher therefore signals lower affinity. A word on the inhibition: it is the percentage by which the read-out fell short of the control.

Values taken from ChEMBL document CHEMBL1287743, “Comparative inhibitory activity of 3'- and 5'-functionalized nucleosides on ribonuclease A” (Bioorg Med Chem, 2010).
